Test [1] has as its system Staphylococcus aureus ATCC 29213. The experiment in a line: MIC by microdilution, compound alone or in combination with an aminoglycoside. The class given is cell-based. The method, then: (§1) Method. The minimal inhibitory concentrations (MICs), (i.e. lowest concentration of an antimicrobial that will inhibit the visible growth of a microorganism after incubation), of test compounds were determined against the normal or SCV strains of bacterial species from the Firmicutes phylum. Briefly, MICs were determined using the microdilution method in 96-well plates (Clinical and Laboratory Standards Institute (CLSI), 2011). Bacteria were inoculated at ˜10^5-10^6 CFU/mL and incubated at 35° C. for 20 h (normal strains) or 48 h (SCVs) in brain heart infusion (BHI) broth in order to allow SCVs to reach maximal growth as previously described (Mitchell et al., 2012). Then OD595 nm was read on a microplate reader. […] In this example the range of compound concentrations tested was 0.03 to 64 μg/ml using doubling increments. Strain Staphylococcus aureus NewbouldΔhemB (hemB) was also used in the experiments and is a laboratory-derived stable SCV created by the insertion of the macrolide resistance gene ermA in the hemB gene of this strain to create the SCV phenotype (defective electron transport chain and respiratory deficiency) through inactivation of hemin biosynthesis (Brouillette et al., 2004).
The various antibacterial activities of the test compounds against Staphylococcus aureus ATCC 29213, alone or in combination with gentamicin, and alone against the SCV strain hemB are reported in Table 1.

For test [2], the system named is S. aureus SCV strain NewbouldΔhemB. The experiment in a line: MIC by microdilution against SCV strain. The class given is cell-based, Staphylococcus aureus. Here is the method: as §1, with “2004). […]” for “2004).”
For another test, the system named is MRSA COL. The test can be described thus: MIC by microdilution, alone or in combination, MRSA COL. The class given is cell-based, Staphylococcus aureus. To be noted: agent used alone. Here is the method: as §1
In the present Example the range of compound concentrations tested, using doubling increments, was 0.03 to 64 μg/ml for Compound 14 and up to 1024 μg/ml for gentamicin (GEN), kanamycin (KAN) and cefalexin (CEF) when these compounds were used alone. Compound 14 (Cpd 14) was used at a fixed concentration of 4 μg/ml when added to other antibiotics. The combination of CEF and KAN was used in a 3:2 ratio and doubling increments were used to test the antibacterial activity against MRSA in the absence or presence of Compound 14.

Another test has as its system S. aureus hemB (SaR1). The test can be described thus: MIC against tomatidine-resistant SCV mutant SaR1. The class given is cell-based, Staphylococcus aureus. The method, then:
At each passage, using a microdilution method in 96-well microplates, S. aureus hemB was inoculated at ˜10^5-10^6 CFU/ml and incubated at 35° C. for 48 h. The range of tomatidine concentrations tested was 0.03 to 64 μg/ml using doubling increments. The concentration of gentamicin was fixed at 4 μg/mL when it was used in combination with tomatidine. At each passage, the minimal inhibitory concentrations (MICs) (i.e. lowest concentration of an antimicrobial that inhibits the visible growth of bacteria), of tomatidine was determined. The bacteria used as inoculum for the next passage were from the well preceeding the well showing the MIC (i.e. the well containing half the MIC). At each passage, the population of bacteria serving as the inoculum for the next passage was spread on BHI agar plates and three isolated colonies were collected and frozen until used for whole-genome sequencing.

In test [3] the test system is Listeria monocytogenes (strain ATCC 13932). The experiment in a line: Time-kill experiments, Listeria monocytogenes. The class given is cell-based. The method, then:
Time-kill experiments were performed in order to determine whether the effect of test compounds or the combination with an aminoglycoside on Listeria monocytogenes (strain ATCC 13932) is bacteriostatic (prevents growth) or bactericidal (kills cells).
At several time points during growth at 35° C. (225 RPM), bacteria were sampled, serially diluted and plated on Brain Hearth Infusion agar (BHIA) for colony-forming unit (CFU) determinations (i.e., viable bacterial counts). Plates were incubated for 24 h at 35° C. It represents the results of three independent experiments.

Test [4] relates to Staphylococcus aureus strain SH1000 grown in biofilms. The test can be described thus: Calgary biofilm device, CFU and crystal violet. The class given is cell-based. The following applies: hydrochloride. The method, then: The bactericidal activity of tomatidine and Compound 14 in combination with gentamicin against Staphylococcus aureus was evaluated against this bacterium grown in a biofilm. Biofilms confer to bacteria protection from host defenses as well as tolerance to some antibiotics that target active and dividing cells. In addition, biofilms also provide protection against hydrodynamic shear forces, and biofilm infections are generally difficult to eradicate even in hosts with intact immune system (Costerton et al, 1999; Davies 2003).
Staphylococcus aureus strain SH1000 of the normal phenotype (i.e., non-SCV) was used for its high ability to produce biofilms. The Calgary biofilm device (96-well plates with peg lids) was used to grow S. aureus in biofilms (Ceri et al, 1999) and to test the bactericidal activity of compounds (Moskowitz et al, 2004). Briefly, S. aureus SH1000 was grown in the Calgary biofilm device for 24 h at 35° C. until the biofilm forms on the pegs. The pegs were then washed, the medium was removed and the peg lids were dipped in fresh medium containing various amounts of test compounds. […] Replicate experiments were performed in order to quantify the residual amount of biofilm on pegs by crystal violet staining and spectrophotometry (absorbance [OD] at 562 nm).

The mark [5] stands for this setting: compound tested alone, strain NewbouldΔhemB.

Entries after “also recorded” stand apart in the source; their conditions may differ.

For the substance “3-(N-aminoethyl)-aminotomatidine hydrochloride [Compound 14]”, the “potentiaton fold with gentamicin” value in test [1] (MIC gentamicin alone / MIC gentamicin with compound at 4 μg/mL) is reported as 4-8 x. Moreover, the “potentiation / synergy with aminoglycoside (gentamicin) in words” value in test [1] (S. aureus ATCC 29213) is recorded as “retain the ability to potentiate”. In test [1] (compound tested alone), the “activity vs ATCC29213 in words” value is listed as “Active”. Also, the “MIC vs ATCC29213” value in test [1] (compound tested alone, hydrochloride) lay within 8 to 16 µg/mL. Further, the “potentiation activity with gentamicin in words” value in test [1] (compound used at 4 μg/mL) is “Moderate-high”. Besides, the “Combination MIC vs ATCC29213 (MIC of gentamicin in combination with the compound)” value in test [1] (compound used at 4 μg/mL, MIC of gentamicin alone 0.5 μg/mL) is listed as 0.06-0.12. Also, the MIC stood at 0.5 µg/mL in test [2] (S. aureus hemB (SCV strain NewbouldΔhemB)), 16 µg/mL with MRSA COL and 8 µg/mL with S. aureus hemB (SaR1) (tomatidine-resistant mutant SaR1). In test [2] (setting [5]), the “Activity of the compounds against the SCV strain (class)” value is listed as “Moderate (MIC = 0.5-4 μg/mL: moderate activity)”. Further, the “MIC vs SCV” value in test [2] (setting [5]) was in the range of 0.5 to 1 µg/mL. Besides, the “Fold increase in resistance (MIC for mutant / MIC for NewbouldΔhemB)” value in the test on S. aureus hemB (SaR1) (mutant SaR1) was determined as 16 fold. In test [3] (8 μg/ml with 2 μg/ml gentamicin), the “effect in time-kill in combination with gentamicin” value was “important bactericidal synergy”. In test [3] (used alone at 8 μg/ml), the “effect on growth in time-kill (CFU)” value was “reduces the growth”. Further, the “killing of S. aureus in biofilms (Log 10 CFU/peg)” value in test [4] (alone or in combination with gentamicin, 24 h) is on record as “efficiently kills; also recorded: bactericidal”. For the same substance, the “biofilm disrupting activity (residual OD562 nm)” value in test [4] (used alone, Compound 14 at 4 μg/ml, TO at 8 μg/ml) is on record as “superior biofilm disrupting activity; also recorded: can also disrupt biofilm formation”.

The record behind these values is patent publication US10716797B2, “Steroid alkaloids and compositions and kits thereof” (priority 2013, dated 2020).
